Tests used:
SETVI (Setaria viridis) [1] = test: Preemergence herbicidal evaluation; type: in vivo, (L.) Beau; conditions: preemergence, rated 4-5 weeks after treatment
Procedure, shortened: (§1)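 Scores (0–9) reflect visual comparison with control plants for stand, vigor, malformation, size and chlorosis. Seeds in potting soil received a post-planting spray of compound in aqueous acetone and grew in a greenhouse until assessment 4–5 weeks later.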

[2] = test system: ECHCG (Echinochloa crus-galli); test: Preemergence herbicidal evaluation; type: in vivo, (L.) Beau; conditions: preemergence, rated 4-5 weeks after treatment
Procedure, shortened: as §1

GALAP (Galium aparine) [3] = test: Preemergence herbicidal evaluation; type: in vivo; conditions: preemergence, rated 4-5 weeks after treatment
Procedure, shortened: as §1

[4] = test system: CHEAL (Chenopodium album); test: Preemergence herbicidal evaluation; type: in vivo, L.; conditions: preemergence, rated 4-5 weeks after treatment
Procedure, shortened: as §1

[5] = test system: AMBEL (Ambrosia artemisifolia); test: Preemergence herbicidal evaluation; type: in vivo, L.; conditions: preemergence, rated 4-5 weeks after treatment
Procedure, shortened: as §1

[6] = test system: CASOB (Cassia obtusifolia); test: Preemergence herbicidal evaluation; type: in vivo, L.; conditions: preemergence, rated 4-5 weeks after treatment
Procedure, shortened: as §1

ORYSAT (Rice, Tebonnet) [7] = test: Postemergence herbicidal evaluation; type: in vivo, Oryza sativa, (L.) Tebonnet
Procedure, shortened: (§2)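 Seedlings grown about two weeks in flats, sprayed, then kept under standard greenhouse care. Rated visually 4–5 weeks after treatment on a 0–9 scale (stand, vigour, malformation, size, chlorosis, overall appearance) relative to untreated control; repeat tests averaged.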

[8] = test system: SAGPY (Sagittaria pygmaea); test: Flooded paddy, preemergence weed control; type: in vivo, L.; conditions: rated 3-4 weeks after treatment, 0-9 rating scale
Procedure, shortened: (§3)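 Silt loam, sowing depth ≤0.5 cm; permanent flood 1.5–3 cm above soil; greenhouse culture after treatment. Readout: 0-9 visual scale (stand, vigor, malformation, size, chlorosis, appearance) vs control.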

[9] = test system: CHEAL (Chenopodium album); test: Postemergence herbicidal evaluation; type: in vivo, L.
Procedure, shortened: as §2

[10] = test system: AMBEL (Ambrosia artemisifolia); test: Postemergence herbicidal evaluation; type: in vivo, L.
Procedure, shortened: as §2

[11] = test system: CASOB (Cassia obtusifolia); test: Postemergence herbicidal evaluation; type: in vivo, L.
Procedure, shortened: as §2

[12] = test system: IPOHE (Ipomoea hederacea); test: Postemergence herbicidal evaluation; type: in vivo, (L.) Jacq.
Procedure, shortened: as §2

[13] = test system: MOOVA (Monochoria vaginalis); test: Flooded paddy, preemergence weed control; type: in vivo, Presl.; conditions: rated 3-4 weeks after treatment, 0-9 rating scale
Procedure, shortened: as §3

[14] = test system: CYPSE (Cyperus serotinus); test: Flooded paddy, preemergence weed control; type: in vivo, Rottb.; conditions: rated 3-4 weeks after treatment, 0-9 rating scale
Procedure, shortened: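 Seeds or propagules were planted 0.5 cm deep in silt loam and flooded to 1.5–3 cm. Compounds in 50/50 v/v aqueous/acetone were pipetted into the flood water at about 0.0080 to 0.1250 kg/ha. After 3–4 weeks in the greenhouse, effect was rated visually on a 0–9 scale versus untreated control.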

GALAP (Galium aparine) [15] = test: Postemergence herbicidal evaluation; type: in vivo
Procedure, shortened: as §2

SETVI (Setaria viridis) [16] = test: Postemergence herbicidal evaluation; type: in vivo, (L.) Beau
Procedure, shortened: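 Ratings use a 0-9 visual scale covering stand, vigor, malformation, size, chlorosis and appearance versus a control, scored 4-5 weeks post-spray. Roughly two-week-old seedlings received about 0.0040-1.000 kg/ha active, applied in 50/50 acetone/water with 0.5% TWEEN 20. Multiple tests per compound were averaged.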

[17] = test system: ABUTH (Abutilon theophrasti); test: Postemergence herbicidal evaluation; type: in vivo, Medic.
Procedure, shortened: as §2

ORYSAT (Rice, Tebonnet) [18] = test: Preemergence herbicidal evaluation; type: in vivo, Oryza sativa, (L.) Tebonnet; conditions: preemergence, rated 4-5 weeks after treatment
CYPIR (Cyperus iria) = test: Flooded paddy, preemergence weed control; type: in vivo; conditions: rated 3-4 weeks after treatment, 0-9 rating scale
Procedure, shortened: as §3

[19] = test system: TRZAWR (Wheat, Winter, cv Riband); test: Postemergence herbicidal evaluation; type: in vivo, Triticum aestivum
Procedure, shortened: as §2

SMILES: Cc1ccc(-c2nsc3ccc(-n4c(=O)cc(C(F)(F)F)n(C)c4=O)cc23)s1 [Compound 21, 1-methyl-3-[3-(5-methyl-2-thienyl)-1,2-benzisothiazol-5-yl]-6-(trifluoromethyl)uracil]
- SETVI preemergence herbicidal rating (SETVI (Setaria viridis) [1]; Rate 0.0620 kg/ha): 6.5
- SETVI preemergence herbicidal rating (SETVI (Setaria viridis) [1]; Rate 0.1250 kg/ha): 9.0
- SETVI preemergence herbicidal rating (SETVI (Setaria viridis) [1]; Rate 0.2500 kg/ha): 9.0
- ECHCG preemergence herbicidal rating ([2]; Rate 0.0620 kg/ha): 0.0
- ECHCG preemergence herbicidal rating ([2]; Rate 0.1250 kg/ha): 5.0
- ECHCG preemergence herbicidal rating ([2]; Rate 0.2500 kg/ha): 6.5
- GALAP preemergence herbicidal rating (GALAP (Galium aparine) [3]; Rate 0.0620 kg/ha): 3.0
- GALAP preemergence herbicidal rating (GALAP (Galium aparine) [3]; Rate 0.1250 kg/ha): 2.0
- GALAP preemergence herbicidal rating (GALAP (Galium aparine) [3]; Rate 0.2500 kg/ha): 9.0
- CHEAL preemergence herbicidal rating ([4]; Rate 0.0620 kg/ha): 9.0
- CHEAL preemergence herbicidal rating ([4]; Rate 0.1250 kg/ha): 9.0
- CHEAL preemergence herbicidal rating ([4]; Rate 0.2500 kg/ha): 9.0
- AMBEL preemergence herbicidal rating ([5]; Rate 0.0620 kg/ha): 2.0
- AMBEL preemergence herbicidal rating ([5]; Rate 0.1250 kg/ha): 5.5
- AMBEL preemergence herbicidal rating ([5]; Rate 0.2500 kg/ha): 7.5
- CASOB preemergence herbicidal rating ([6]; Rate 0.0620 kg/ha): 0.0
- CASOB preemergence herbicidal rating ([6]; Rate 0.1250 kg/ha): 0.5
- CASOB preemergence herbicidal rating ([6]; Rate 0.2500 kg/ha): 2.0
- Postemergence herbicidal rating, ORYSAT (ORYSAT (Rice, Tebonnet) [7]; rate 0.0320 kg/ha): 4.0
- Postemergence herbicidal rating, ORYSAT (ORYSAT (Rice, Tebonnet) [7]; rate 0.0620 kg/ha): 3.5
- Postemergence herbicidal rating, ORYSAT (ORYSAT (Rice, Tebonnet) [7]; rate 0.1250 kg/ha): 4.5
- herbicidal rating, SAGPY ([8]; rate 0.0080 kg/ha): 0.0
- herbicidal rating, SAGPY ([8]; rate 0.0320 kg/ha): 0.0
- herbicidal rating, SAGPY ([8]; rate 0.1250 kg/ha): 6.0
- Postemergence herbicidal rating, CHEAL ([9]; rate 0.0320 kg/ha): 7.0
- Postemergence herbicidal rating, CHEAL ([9]; rate 0.0620 kg/ha): 9.0
- Postemergence herbicidal rating, CHEAL ([9]; rate 0.1250 kg/ha): 9.0
- Postemergence herbicidal rating, AMBEL ([10]; rate 0.0320 kg/ha): 9.0
- Postemergence herbicidal rating, AMBEL ([10]; rate 0.0620 kg/ha): 9.0
- Postemergence herbicidal rating, AMBEL ([10]; rate 0.1250 kg/ha): 9.0
- Postemergence herbicidal rating, CASOB ([11]; rate 0.0320 kg/ha): 2.0
- Postemergence herbicidal rating, CASOB ([11]; rate 0.0620 kg/ha): 4.0
- Postemergence herbicidal rating, CASOB ([11]; rate 0.1250 kg/ha): 7.0
- Postemergence herbicidal rating, IPOHE ([12]; rate 0.0320 kg/ha): 9.0
- Postemergence herbicidal rating, IPOHE ([12]; rate 0.0620 kg/ha): 9.0
- Postemergence herbicidal rating, IPOHE ([12]; rate 0.1250 kg/ha): 9.0
- herbicidal rating, MOOVA ([13]; rate 0.0080 kg/ha): 7.0
- herbicidal rating, MOOVA ([13]; rate 0.0320 kg/ha): 9.0
- herbicidal rating, MOOVA ([13]; rate 0.1250 kg/ha): 9.0
- herbicidal rating, CYPSE ([14]; rate 0.0080 kg/ha): 0.0
- herbicidal rating, CYPSE ([14]; rate 0.0320 kg/ha): 4.5
- herbicidal rating, CYPSE ([14]; rate 0.1250 kg/ha): 4.5
- Postemergence herbicidal rating, GALAP (GALAP (Galium aparine) [15]; rate 0.0320 kg/ha): 1.0
- Postemergence herbicidal rating, GALAP (GALAP (Galium aparine) [15]; rate 0.0620 kg/ha): 4.0
- Postemergence herbicidal rating, GALAP (GALAP (Galium aparine) [15]; rate 0.1250 kg/ha): 9.0
- Postemergence herbicidal rating, SETVI (SETVI (Setaria viridis) [16]; rate 0.0320 kg/ha): 2.0
- Postemergence herbicidal rating, SETVI (SETVI (Setaria viridis) [16]; rate 0.0620 kg/ha): 7.0
- Postemergence herbicidal rating, SETVI (SETVI (Setaria viridis) [16]; rate 0.1250 kg/ha): 9.0
- Postemergence herbicidal rating, ABUTH ([17]; rate 0.0320 kg/ha): 9.0
- Postemergence herbicidal rating, ABUTH ([17]; rate 0.0620 kg/ha): 9.0
- Postemergence herbicidal rating, ABUTH ([17]; rate 0.1250 kg/ha): 9.0
- ORYSAT preemergence herbicidal rating (ORYSAT (Rice, Tebonnet) [18]; Rate 0.0620 kg/ha): 0.0
- ORYSAT preemergence herbicidal rating (ORYSAT (Rice, Tebonnet) [18]; Rate 0.1250 kg/ha): 0.5
- ORYSAT preemergence herbicidal rating (ORYSAT (Rice, Tebonnet) [18]; Rate 0.2500 kg/ha): 3.5
- herbicidal rating, CYPIR (CYPIR (Cyperus iria); rate 0.0080 kg/ha): 4.0
- herbicidal rating, CYPIR (CYPIR (Cyperus iria); rate 0.0320 kg/ha): 9.0
- herbicidal rating, CYPIR (CYPIR (Cyperus iria); rate 0.1250 kg/ha): 9.0
- Postemergence herbicidal rating, TRZAWR ([19]; rate 0.0320 kg/ha): 4.0
- Postemergence herbicidal rating, TRZAWR ([19]; rate 0.0620 kg/ha): 4.5
- Postemergence herbicidal rating, TRZAWR ([19]; rate 0.1250 kg/ha): 4.5

Reference: patent publication US6706663B2, “Herbicidal 3-heterocyclic substituted benzisothiazole and benzisoxazole compounds” (Wyeth, priority 2000, dated 2004)
